In patent US20050176813A1, “Novel chalcone derivatives and uses thereof” (priority 2002, published 2005):
Where two headings read alike, the source gives them in different places.

Tests used:
[1] = target: T1, Kv1.3 (Homo sapiens, UniProt P22001); assay: Kv1.3 channel block, estimated Kd (Table 1); format: binding
[2] = target: Kv1.5 (Homo sapiens, UniProt P22460); assay: Kv1.5 channel block, estimated Kd (Table 1); format: binding
[3] = tested on: human peripheral blood lymphocytes; assay: Proliferation test, [3H]-thymidine incorporation assay, anti-CD3 stimulated; format: cell-based; conditions: for Antiproliferative potency compared with Example 1: FIG. 1; for EC50: Homo sapiens, Lymphocyte, anti-CD3 stimulation, 48 h, read-out: EC50, suppression of proliferation of human peripheral blood lymphocytes
Procedure: Proliferation Test [^3H]-Thymidine Incorporation Assay
Resting peripheral blood mononuclear cells from healthy volunteers were seeded at 2×10^5 cells per well in medium (RPMI 1640 supplemented 10% fetal calf serum, 2 mM glutamine, 1 mM sodium pyruvate, 1% nonessential amino acids, 100 units/ml penicillin, 100 μg/ml streptomycin and 50 μM β-mercaptoethanol) in flat-bottom 96 well plates (final volume 200 μl). Cells pre-incubated with drug (60 min), were stimulated with 5 ng/ml anti-CD3 Ab) for 48 h. [^3H]-Thymidine (1 μCi per well) was added for the last 6 h. Cells were harvested onto glass fibre filters and radioactivity measured in a scintillation counter. All experiments were done in triplicate. Results are reported as normalised for maximum [^3H]-thymidine incorporation for controls.

[4] = tested on: MEL cells; assay: Flow cytometric measurement of cell viability (PI uptake), MEL cells; format: cell-based; conditions: 48 h
Procedure: (§1) Flow Cytometric Measurement of Cell Viability
(§2) Jurkat E6-1 and MEL were seeded at 5×10^5 cells/ml in twelve-well plates. Drug (100 nM, 1 μM, 2.5 μM and 10 μM) was added in a final DMSO concentration of 0.1%. After 48 h of incubation, cells were harvested by sucking them off the plates. Cells were centrifuged, resuspended in 0.5 ml PBS containing 1 μg/ml propidium iodide (PI), and red fluorescence measured on a FACScan flow cytometer (Becton Dickinson) after 20 min (10^4 cells of every sample being analyzed). The percentage of dead cells was determined by their PI uptake. Incubation with 20% DMSO served as a control for setting the gates of the flow cytometer for dead cells.

[5] = tested on: Jurkat E6-1; assay: Flow cytometric measurement of cell viability (PI uptake), Jurkat T-cells; format: cell-based; conditions: 48 h
Procedure: as §1, §2

[6] = tested on: mice; assay: Toxicity on intravenous injection into mice; format: in vivo
[7] = Cytotoxicity in vitro (remark in Table 1, summary of Table 2); format: cell-based; conditions: for Cytotoxicity in-vitro (summary of Table 2): MEL and Jurkat cells; for Cytotoxicity (remark in Table 1): cells not given
Procedure: as §2

[8] = target: T1, Kv1.3; conditions: cited from earlier work
[9] = target: Kv1.7 (Homo sapiens, UniProt Q96RP8); assay: Kv1.7 channel block, estimated Kd (Table 1); format: binding
Kv1.7, sequence (Q96RP8 whole entry): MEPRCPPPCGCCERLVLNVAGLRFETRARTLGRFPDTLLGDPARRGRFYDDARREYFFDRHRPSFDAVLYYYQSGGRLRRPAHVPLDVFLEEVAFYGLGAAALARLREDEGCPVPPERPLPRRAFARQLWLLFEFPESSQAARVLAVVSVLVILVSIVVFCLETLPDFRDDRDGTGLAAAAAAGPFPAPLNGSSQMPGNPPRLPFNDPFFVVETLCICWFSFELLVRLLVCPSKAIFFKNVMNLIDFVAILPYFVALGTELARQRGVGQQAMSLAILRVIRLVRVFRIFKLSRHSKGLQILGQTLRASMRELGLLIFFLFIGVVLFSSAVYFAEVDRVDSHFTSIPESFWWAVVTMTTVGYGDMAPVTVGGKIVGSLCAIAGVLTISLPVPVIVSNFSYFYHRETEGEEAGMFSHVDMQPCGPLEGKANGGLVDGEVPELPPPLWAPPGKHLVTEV

[10] = target: Kv1.1 (Homo sapiens, UniProt Q09470); assay: Kv1.1 channel block, estimated Kd (Table 1); format: binding
Kv1.1, sequence (Q09470 whole entry): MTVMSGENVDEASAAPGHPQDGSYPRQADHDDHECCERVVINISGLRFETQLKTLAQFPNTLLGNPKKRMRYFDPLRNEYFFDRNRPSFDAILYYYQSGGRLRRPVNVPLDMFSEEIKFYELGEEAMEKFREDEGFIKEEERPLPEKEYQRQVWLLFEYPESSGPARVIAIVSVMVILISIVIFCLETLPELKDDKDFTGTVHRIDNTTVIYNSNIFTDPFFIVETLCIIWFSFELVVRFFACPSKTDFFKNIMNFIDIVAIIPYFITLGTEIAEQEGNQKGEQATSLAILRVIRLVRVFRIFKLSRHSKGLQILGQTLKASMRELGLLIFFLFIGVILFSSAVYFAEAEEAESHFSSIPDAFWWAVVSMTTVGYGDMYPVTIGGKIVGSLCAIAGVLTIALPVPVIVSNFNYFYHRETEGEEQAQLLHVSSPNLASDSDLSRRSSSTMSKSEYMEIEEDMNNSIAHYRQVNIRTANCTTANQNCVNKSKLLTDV

[11] = target: IK (Homo sapiens, UniProt O15554); assay: IK channel inhibition (Table 1); format: binding; conditions: at 20 μM
[12] = Kv1.3, area, read-out: Est. Kd, Kd area
[13] = Kv1.3, end, read-out: Est. Kd, Kd end
[14] = Kv1.3, peak, read-out: Est. Kd, Kd peak
[15] = Kv1.5, end, read-out: Est. Kd, Kd end
[16] = Kv1.5, peak, read-out: Est. Kd, Kd peak
[17] = injected intravenously, dose not stated
[18] = Kv1.1, area, read-out: Est. Kd, Kd area
[19] = Kv1.1, end, read-out: Est. Kd, Kd end
[20] = Kv1.1, peak, read-out: Est. Kd, Kd peak

Kv1.5, sequence (P22460 whole entry): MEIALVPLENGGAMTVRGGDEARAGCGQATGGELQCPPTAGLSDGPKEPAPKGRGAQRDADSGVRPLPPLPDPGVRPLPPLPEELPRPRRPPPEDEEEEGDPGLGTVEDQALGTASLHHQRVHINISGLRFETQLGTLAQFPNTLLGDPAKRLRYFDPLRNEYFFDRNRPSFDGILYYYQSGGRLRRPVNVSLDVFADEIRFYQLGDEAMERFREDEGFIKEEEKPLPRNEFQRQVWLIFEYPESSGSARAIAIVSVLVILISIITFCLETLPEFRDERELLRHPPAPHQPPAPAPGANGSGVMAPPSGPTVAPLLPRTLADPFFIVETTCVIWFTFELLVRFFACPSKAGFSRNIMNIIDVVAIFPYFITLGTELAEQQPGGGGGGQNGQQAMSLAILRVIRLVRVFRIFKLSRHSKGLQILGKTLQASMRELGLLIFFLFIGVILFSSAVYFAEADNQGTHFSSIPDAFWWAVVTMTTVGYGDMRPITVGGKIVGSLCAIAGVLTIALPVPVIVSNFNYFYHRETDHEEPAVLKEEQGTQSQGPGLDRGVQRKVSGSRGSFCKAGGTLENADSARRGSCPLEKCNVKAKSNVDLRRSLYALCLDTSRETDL
T1 sequence (P22001 whole entry): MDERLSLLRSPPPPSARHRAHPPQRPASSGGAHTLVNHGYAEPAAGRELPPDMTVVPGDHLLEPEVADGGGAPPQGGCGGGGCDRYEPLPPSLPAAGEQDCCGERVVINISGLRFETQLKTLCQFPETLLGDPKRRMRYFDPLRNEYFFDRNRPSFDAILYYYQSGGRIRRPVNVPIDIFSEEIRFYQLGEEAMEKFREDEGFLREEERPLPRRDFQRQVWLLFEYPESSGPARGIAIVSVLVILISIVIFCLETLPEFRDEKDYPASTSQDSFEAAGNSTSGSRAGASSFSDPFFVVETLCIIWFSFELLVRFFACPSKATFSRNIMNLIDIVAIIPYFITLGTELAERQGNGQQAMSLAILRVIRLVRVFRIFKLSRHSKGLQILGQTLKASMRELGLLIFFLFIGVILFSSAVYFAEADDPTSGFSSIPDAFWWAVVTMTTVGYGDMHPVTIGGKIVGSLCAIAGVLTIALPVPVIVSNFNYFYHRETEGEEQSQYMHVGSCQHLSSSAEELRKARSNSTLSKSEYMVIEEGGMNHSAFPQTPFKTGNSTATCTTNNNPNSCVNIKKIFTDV

Row | SMILES | Kd [1, 13] [nM] | Kd [1, 14] [nM] | EC50 [3] [nM] | percentage of dead cells (PI uptake) ([4]; 100 nM) [%] | percentage of dead cells (PI uptake) ([4]; 1 μM) [%] | percentage of dead cells (PI uptake) ([4]; 2.5 μM) [%] | percentage of dead cells (PI uptake) ([4]; 10 μM) [%] | percentage of dead cells (PI uptake) ([5]; 100 nM) [%] | percentage of dead cells (PI uptake) ([5]; 1 μM) [%] | percentage of dead cells (PI uptake) ([5]; 2.5 μM) [%] | percentage of dead cells (PI uptake) ([5]; 10 μM) [%] | Cytotoxicity in-vitro (summary of Table 2) [7] | further results
1 | COc1cccc(/C=C/C(=O)c2c(O)c(OC)c3occc3c2OC)c1 (single isomer, unassigned) [Example 24] | 250 to 300 | 900 to 1100 | 1000 | 3.53 | 3.73 | 5.26 | 3.00 | 2.41 | 2.81 | 2.31 | 9.8 | non-cytotoxic | Kd [1, 12]: 800 nM; Kd [2, 15]: 6000 nM; Kd [2, 16]: 36000 nM; Antiproliferative potency compared with Example 1 [3]: even more potently antiproliferative; Toxicity in mice [6, 17]: non-toxic
2 | COc1c(C(C)=O)c(O)c(OC)c2occc12 [khellinone] | – | – | – | – | – | – | – | – | – | – | – | – | Blocking activity on the Kv1.3 channel [8]: blocking activity
3 | COc1c(C(=O)/C=C/c2cc(Br)cs2)c(O)c(OC)c2occc12 [Example 54] | 250 | 4000 | – | – | – | – | – | – | – | – | – | – | Cytotoxicity (remark in Table 1) [7]: Cytotoxic Mp 139 Brown needles
4 | COc1c(C(=O)/C=C/c2cccc(O)c2)c(O)c(OC)c2occc12 [Example 18] | 250 | 5000 | 500 | 6.89 | 3.60 | 6.98 | 4.41 | 2.57 | 2.22 | 2.59 | 4.70 | non-cytotoxic | Kd [1, 12]: 700 nM; Kd ([9]; Kv1.7, time-independent, read-out: Est. Kd): 50000 nM; Kd [10, 18]: 1700 nM; Kd [10, 19]: 1000 nM; Kd [10, 20]: 15000 nM; Kd [2, 15]: 10000 nM; Kd [2, 16]: 16000 nM; Antiproliferative potency compared with Example 1 [3]: even more potently antiproliferative; Toxicity in mice [6, 17]: non-toxic
5 | COc1c2occc2cc2ccc(=O)oc12 [8-Methoxypsoralen] | – | – | – | – | – | – | – | – | – | – | – | – | Blocking activity on the Kv1.3 channel ([8]; background): blocking activity
6 | COc1c(C(=O)/C=C/c2ccccc2)c(O)c(OC)c2occc12 [Example 1] | 120 | 750 | 1000 | 4.95 | 6.21 | 6.70 | 5.88 | 3.02 | 1.47 | 1.78 | 8.10 | non-cytotoxic | Kd ([1]; T-lymphocytes, read-out: Kd (dissociation constant), block of Kv1.3 voltage gated potassium channel in T-lymphocytes): 400 nM; Block phasic or not ([9]; Kv1.7): phasic; Kd ([9]; Kv1.7, end, read-out: Est. Kd, Kd end): 5000 nM; Kd ([9]; Kv1.7, peak, read-out: Est. Kd, Kd peak): 25000 nM; Kd [10, 18]: 1200 nM; Kd [10, 19]: 700 nM; Kd [10, 20]: 12000 nM; Selectivity over Kv1.5 ([2]; Kv1.3 over Kv1.5): Cinnamon needles. Selectivity over Kv1.5 is 25-fold. Mp 125-126; IK inhibition [11]: no inhibition; Toxicity in mice ([6]; 30 uM injected intravenously): non-toxic
7 | COc1c(C(=O)/C=C/c2cccs2)c(O)c(OC)c2occc12 [Example 53] | 300 | 1750 | – | – | – | – | – | – | – | – | – | – | Cytotoxicity (remark in Table 1) [7]: Cytotoxic Mp 129 Red needles
